Experimental data published in US20240209010A1, “PRODRUGS OF AZO COMPOUNDS AND THEIR SALTS” (KASHIV BIOSCIENCES, LLC, priority 2021, published 2024).

What was measured:
[1] = Pharmacokinetic data in rat after single oral administration; format: in vivo; conditions: analyte = the administered compound itself, single oral dose (No. 12 31.2, No. 43 32.8, No. 446 34.8, No. 449 25, XIII 21.2, No. 54 27 mg/kg), fasted female Sprague Dawley rat
Protocol: The objective of the study was to evaluate pharmacokinetic exposure of Compound XI along with Compound No. 12/Compound No. 43/Compound No. 446/Compound No. 449/Compound XIII/Compound No. 54 after per oral dosing at 31.2 mg/kg of Compound No. 12, 32.8 mg/kg of Compound No. 43, 34.8 mg/kg of Compound No. 446, 25 mg/kg of Compound No. 449, 21.2 mg/kg of Compound XIII and 27 mg/kg of Compound No. 54 in female Sprague Dawley rat. This study was performed in overnight fasted female Sprague Dawley rat. Dose formulation was prepared freshly on the day of dosing. 0.1% tween-80+99.9% of 0.5% CMC was used as vehicle for the preparation of dose formulation.
Blood samples were collected through retro orbital plexus puncture at pre-dose, 0.25, 0.5, 1, 2, 4, 8, 12 and 24 h post-dose. At each time point, blood was withdrawn and transferred into a pre-labeled of micro centrifuge tubes containing anti-coagulant. Tube was mixed gently by inverting the tube to facilitate mixing of anticoagulant with the blood. All blood/plasma samples were analysed using fit-for purpose LC-MS/MS method.
The pharmacokinetic parameters were calculated using standard non-compartmental analysis (Phoenix® software, version 8.3, Pharsight Corporation, Mountain View, California 94040/USA) using linear trapezoidal method with linear interpolation.

P2RX3 gene = assay: Gene expression analysis (qRT-PCR) of P2RX3 in cyclophosphamide-treated RT4 cells; format: cell-based, Human; conditions: 100 μM CYP + 10 μM compound, 4 h incubation, compared to CYP control
Protocol: Study Design: With objective of evaluating effect of text compounds on the pain related markers we have utilized human urothelial “RT4 (Human Urinary bladder carcinoma cells)” cells, treated with test compounds in combination with cyclophosphamide (CYP) and performed gene expression analysis of pain related gene. For gene expression study, 0.5×10^6 cells were treated with cyclophosphamide and test compounds. Cells were incubated for 4 h at 37° C. Experimental Groups: Groups 1: Untreated cells, Group 2: CYP treated (100 μM CYP), Group 3: CYP+Compound IX (100 μM CYP+10 μM Compound IX).
At the end of 4 hr incubation, medium was removed from all wells and cells were washed once with sterile PBS. RNA isolation was performed as per the manufacturer's instruction utilizing Qiagen RNA mini kit (Cat #74104). Followed by cDNA synthesis using 3 μg of total RNA each sample utilizing Superscript III First strand cDNA synthesis system (Thermo fisher, Cat No 18080051). qRT-PCR was performed using the SYBR green master mix (PCR Biosystems, Cat No:—PB20.14) and primers specific for P2RX3 gene. Upon the completion of PCR, the data was analysed using the CFX manager software. The Fold change of the expression was calculated using the following formula: 2^−ddCT=2^−((CT target −CT internal control)

In the case of `NCC(=O)Nc1ccc(/N=N/c2ccccc2OC(=O)N2CCOCC2)c(N)n1` [Compound No. 446], the “AUC% Extrap—obs” value [1] is reported as 11.73%, the AUC(0-t) ([1]; in vivo) is reported as 151 ng·h/mL and the Tmax ([1]; in vivo) is reported as 15 min. It also gave a Cmax ([1]; in vivo, arithmetic mean) of 145 ng/mL and an AUC(0-inf) ([1]; in vivo, read-out: AUCinf—obs) of 170 ng·h/mL.
For `Nc1nc(N)c(/N=N/c2ccccc2)cc1O` [Compound IX], the “P2RX3 gene expression (fold change)” value (P2RX3 gene) was “reduction in P2RX3 gene expression”.
